Source: US20260165323A1, “USE OF STROBILURIN TYPE COMPOUNDS FOR COMBATING PHYTOPATHOGENIC FUNGI CONTAINING AN AMINO ACID SUBSTITUTION F129L IN THE MITOCHONDRIAL CYTOCHROME B PROTEIN CONFERRING RESISTANCE TO QO […]” (priority 2022, published 2026)

Experiments:
Format in all cases: in vivo
[1] = tested on: Phakopsora pachyrhizi containing the amino acid substitution F129L in the mitochondrial cytochrome b protein; assay: Use Example 1: protective control of soybean rust on soybeans (PHAKPA P2); conditions: inoculated 2 days after spraying, % diseased leaf area
Protocol: (§1) The compound was dissolved in a mixture of acetone and/or dimethylsulfoxide and the wetting agent/emulsifier Wettol, which is based on ethoxylated alkylphenoles, in a ratio (volume) solvent-emulsifier of 99 to 1 to give a total volume of 5 ml. Subsequently, water was added to total volume of 100 ml. This stock solution was then diluted with the described solvent-emulsifier-water mixture to the final concentration given in the tables below.
Use Example 1. Protective Control of Soybean Rust on Soybeans Caused by Phakopsora pachyrhizi (PHAKPA P2)
(§2) Leaves of potted soybean seedlings were sprayed to run-off with the previously described spray solution, containing the concentration of active ingredient or their mixture as described below. The plants were allowed to air-dry. The trial plants were cultivated for 2 days in a greenhouse chamber at 23-27° C. and a relative humidity between 60 and 80%. Then the plants were inoculated with spores of Phakopsora pachyrhizi. The strain used contains the amino acid substitution F129L in the mitochondrial cytochrome b protein conferring resistance to Qo inhibitors. To ensure the success the artificial inoculation, the plants were transferred to a humid chamber with a relative humidity of about 95% and 20 to 24° C. for 24 hr. The trial plants were cultivated for up to 14 days in a greenhouse chamber at 23 to 27° C. and a relative humidity between 60 and 80%. The extent of fungal attack on the leaves was visually assessed as % diseased leaf area, the disease level of untreated controls was usually higher than 85%.

[2] = tested on: Phakopsora pachyrhizi containing the amino acid substitution F129L in the mitochondrial cytochrome b protein; assay: Use Example 2: protective control of soybean rust on soybeans (PHAKPA P6); conditions: inoculated six days after spraying, % diseased leaf area
Protocol: as §1
Use Example 2. Protective Control of Soybean Rust on Soybeans Caused by Phakopsora Pachyrhizi (PHAKPA P6)
as §2, with “active ingredient as described” for “active ingredient or their mixture as described”, “cultivated for six days in” for “cultivated for 2 days in”, “95% and 23 to 27°” for “95% and 20 to 24°”, “23 to 27° C. for” for “20 to 24° C. for”

[3] = tested on: Puccinia recondita; assay: Use Example 4: preventative control of brown rust on wheat (PUCCRT P7); conditions: inoculated seven days after spraying, % diseased leaf area
Protocol: as §1
Use Example 4. Preventative Control of Brown Rust on Wheat Caused by Puccinia recondita (PUCCRT P7)
The first two developed leaves of potted wheat seedling were sprayed to run-off with previously described spray solution, containing the concentration of active ingredient or their mixture as described below. Seven days later the plants were dusted with spores of Puccinia recondita. To ensure the success of the artificial inoculation, the plants were transferred to a humid chamber without light and a relative humidity of 95 to 99% and 20 to 24° C. for 24 h. Then the trial plants were cultivated for 9 to 11 days in a greenhouse chamber at 20 to 24° C. and a relative humidity between 65 and 70%. The extent of fungal attack on the leaves was visually assessed as % diseased leaf area, the disease level of untreated controls was usually between 80 and 100%.

| SMILES | % PHAKPA (F129L) Disease level P2 at 4 ppm [1] | % PHAKPA (F129L) Disease level P2 at 16 ppm [1] | % PHAKPA (F129L) Disease level P6 at 4 ppm [2] | % PHAKPA (F129L) Disease level P6 at 16 ppm [2] | % PUCCRT Disease level P7 at 4 ppm [3] | % PUCCRT Disease level P7 at 16 ppm [3] |
| --- | --- | --- | --- | --- | --- | --- |
| CO/C=C(/C(=O)OC)c1cccc(Cl)c1CO/N=C(\COC)c1ccccc1Cl [compound 15, Methyl-(E)-2-[3-chloro-2-[[(Z)-[1-(2-chlorophenyl)-2-methoxy-ethylidene]amino]oxymethyl]phenyl]-3-methoxy-prop-2-enoate] | 30% | 4% | 40% | 7% | – | – |
| CO/C=C(/C(=O)OC)c1cccc(Cl)c1CO/N=C(\COC1CC1)c1ccc(F)cc1 [compound 60] | 21% | 2% | 21% | 6% | – | – |
| CO/C=C(/C(=O)OC)c1cccc(Cl)c1CO/N=C(\COC1CC1)c1ccccc1 [compound 61] | 11% | 0% | 16% | 2% | – | – |
| CNC(=O)/C(=N/OC)c1cccc(Cl)c1CO/N=C(\COC1CC1)c1ccc(F)cc1 [compound 64] | 37% | 7% | 45% | 7% | – | – |
| CO/C=C(/C(=O)OC)c1cccc(Br)c1CO/N=C(\COC1CC1)c1ccc(F)cc1 [compound 65] | 15% | 1% | 23% | 2% | – | – |
| COC/C(=N\OCc1c(Cl)cccc1/C(=N\OC)C(=O)OC)c1ccc(Cl)c(Cl)c1 [compound 68] | 17% | 2% | 45% | 9% | 40% | 12% |
| COC/C(=N\OCc1c(Cl)cccc1/C(=N\OC)C(=O)OC)c1cc(F)c(F)c(F)c1 [compound 72] | 19% | 1% | 48% | 10% | 60% | 16% |
| CNC(=O)/C(=N/OC)c1cccc(Cl)c1CO/N=C(\COC)c1cccc(Cl)c1Cl [compound 75] | 73% | 24% | 25% | 11% | 67% | 33% |
| COC/C(=N\OCc1c(Cl)cccc1/C(=N\OC)C(=O)OC)c1ccc(F)cc1F [compound 78] | 9% | 0% | 45% | 2% | 42% | 10% |
| CO/C=C(/C(=O)OC)c1cccc(Cl)c1CO/N=C(\COC)c1ccc(Cl)cc1Cl [compound 81] | 63% | 21% | 35% | 20% | – | – |
| COC/C(=N\OCc1c(Cl)cccc1/C(=N\OC)C(=O)OC)c1cc(F)cc(F)c1 [compound 82] | 12% | 0% | 57% | 22% | 57% | 17% |
| CNC(=O)/C(=N/OC)c1cccc(Cl)c1CO/N=C(\COC)c1ccc(Cl)cc1Cl [compound 85] | 42% | 37% | 65% | 25% | – | – |
| COC/C(=N\OCc1c(Cl)cccc1/C(=N\OC)C(=O)OC)c1c(F)cc(Cl)cc1F [compound 89] | 53% | 17% | 45% | 13% | 36% | 25% |
| COC/C(=N\OCc1c(Cl)cccc1/C(=N\OC)C(=O)OC)c1ccc(F)c(F)c1 [compound 90] | 11% | 0% | 42% | 13% | 32% | 10% |
| CNC(=O)/C(=N/OC)c1cccc(Cl)c1CO/N=C(\COC)c1cccc(F)c1F [compound 91] | 13% | 15% | 17% | 18% | – | – |
| CNC(=O)/C(=N/OC)c1cccc(Cl)c1CO/N=C(\COC)c1ccc(F)cc1Cl [compound 94] | 29% | 5% | 43% | 11% | 57% | 26% |
| COC/C(=N\OCc1c(Cl)cccc1/C(=N\OC)C(=O)OC)c1ccc(F)c(F)c1F [compound 98] | 72% | 15% | 72% | 31% | 50% | 12% |
| COC/C(=N\OCc1c(Cl)cccc1/C(=N\OC)C(=O)OC)c1cc(Cl)ccc1F [compound 103] | 72% | 18% | 72% | 18% | – | – |
| COC/C(=N\OCc1c(Cl)cccc1/C(=N\OC)C(=O)OC)c1ccc(Cl)cc1F [compound 104] | 42% | 7% | 27% | 9% | – | – |
| CNC(=O)/C(=N/OC)c1cccc(Cl)c1CO/N=C(\COC)c1ccc(F)c(F)c1F [compound 108] | 21% | 4% | 19% | 7% | – | – |
| COC/C(=N\OCc1c(Cl)cccc1/C(=N\OC)C(=O)OC)c1ccc(Cl)c(F)c1 [compound 114] | 35% | 10% | 82% | 30% | – | – |
| COC/C(=N\OCc1c(Cl)cccc1/C(=N\OC)C(=O)OC)c1ccccc1C [compound 124] | – | – | – | – | 62% | 22% |
| COC/C(=N\OCc1c(Cl)cccc1/C(=N\OC)C(=O)OC)c1cccc(C)c1 [compound 126] | 71% | 14% | 73% | 34% | – | – |
| CO/C=C(/C(=O)OC)c1cccc(Cl)c1CO/N=C(/COC)c1ccc(F)cn1 [compound 132, methyl (E)-2-[3-chloro-2-[[(E)-[1-(5-fluoro-2-pyridyl)-2-methoxy-ethylidene]amino]oxymethyl]phenyl]-3-methoxy-prop-2-enoate] | – | 33% | – | 15% | – | – |
